Experimental data published in patent US20200281949A1, “METHODS FOR TREATING CASTRATION-RESISTANT AND CASTRATION-SENSITIVE PROSTATE CANCER” (TOLERO PHARMACEUTICALS, INC., priority 2018, published 2020).
One block for each compound: values may come before it.

Legend:
[1] = Phase I dose-escalation study in patients with advanced solid tumors: plasma PK; format: in vivo, human; conditions: for Tmax: plasma alvocidib, Cohort 5, 6 mg BID oral compound of structure (I) (Formulation No. 401-01)
Description: Plasma PK parameters of compound of structure (I) and alvocidib were evaluated in Cohorts 1-5 at specific timepoints during the study. Blood was collected from patients in Cohorts 1-5 according to the pharmacokinetic sampling schedule described in Table 9.
PK parameters were estimated using standard noncompartmental methods. Actual sample collection times were used rather than scheduled collection times. Plasma concentrations below the limit of quantification were treated as 0. Imbedded missing plasma concentrations (e.g., missing values between two observed values) were estimated using linear […]. This is consistent with using the trapezoidal rule to calculate AUC. Other missing plasma concentrations were excluded from calculations to estimate PK parameters.

[2] = system: androgen receptor (phospho- and total-AR) in 22Rv1 and LNCaP cells; test: Immunoblotting of androgen receptor in serum-stimulated prostate cancer cells; format: cell-based, human; conditions: 80 nM or 160 nM, 24 hours of treatment, serum stimulated 1 hour before collection
Description: In a first experiment to evaluate the effects of alvocidib on serum stimulated prostate cancer cells, androgen receptor expression was assessed by immunoblotting. […] The prostate cancer cells, 22Rv1 or LNCaP, were treated with DMSO or alvocidib (80 nM or 160 nM), for either 3 hours or 24 hours, and were serum stimulated one hour prior to sample collection (or the cells were serum starved as a control).

[3] = system: PSA expression in 22Rv1 cells; test: PSA expression in serum-stimulated 22Rv1 cells; format: cell-based, human; conditions: 80 nM or 160 nM, 24 hours
Description: The 22Rv1 cells were treated with DMSO or alvocidib (80 nM or 160 nM) for 24 hours, and serum stimulated either 3 hours or 23 hours following treatment (or the cells were serum starved as a control).

LNCaP cells = test: Cell viability assay in LNCaP prostate cancer cells; format: cell-based; conditions: Homo sapiens, alvocidib 3.9 nM-1000 nM
Description: (§1) The compound of structure (I), and pharmaceutically acceptable salts and zwitterionic forms thereof, is converted in vivo to alvocidib (see U.S. Patent Publication No. US 2016/0340376, the full disclosure of which is hereby incorporated by reference in its entirety). Therefore, the in vitro effects of alvocidib were evaluated in multiple prostate cancer cell lines with varied sensitivity to androgen. PC3 is an AR-negative prostate cancer cell line with little to no expression of PSA and low sensitivity to androgens. VCAP is a prostate cancer cell line that is positive for ARv7, and can grow in an androgen-independent manner. LNCAP is an androgen-dependent prostate cancer cell line. 22Rv1 is a prostate cancer cell line that is positive for ARv7, has low sensitivity to androgen, and is derived from a xenograft that was serially propagated in mice after castration-induced regression and relapse of the parental, androgen-dependent CWR22 xenograft. […] Cell viability may be assessed, for example, using CellTiter-Glo according to manufacturer protocol.

PSA in LNCaP cells = test: PSA protein level by Western blot in LNCaP cells; format: cell-based, human; conditions: 25 nM or 100 nM, 48 hours, vs vehicle
Description: (§2) On the day of the treatment, the media was replaced with 10 mL of fresh media. […] Cells were collected by scraping, washed in PBS, and lysed using sonication in RIPA buffer supplemented with protease and phosphatase inhibitors. […] of protein was loaded into a 4-12% gel, and transferred to a nitrocellulose membrane. Blocking, anti-actin, and secondary staining was done in 5% milk. Anti-PSA antibody was diluted in BSA.

PSA in VCaP cells = test: PSA protein level by Western blot in VCaP cells; format: cell-based; conditions: 25 nM or 100 nM, 48 hours, vs vehicle
Description: as §2

[4] = system: TMPRSS2 expression in 22Rv1 cells; test: Quantitative real-time PCR of TMPRSS2 mRNA in serum-stimulated 22Rv1 cells; format: cell-based, human; conditions: 80 nM or 160 nM, 3 or 24 hours, 22Rv1 cells serum stimulated 1 hour before collection
PC3 cells = test: Cell viability assay in PC3 prostate cancer cells; format: cell-based; conditions: Homo sapiens, PC-3, alvocidib 3.9 nM-1000 nM
Description: as §1

[5] = system: RNA Pol II phosphorylation in 22Rv1 cells; test: RNA Pol II phosphorylation by flow cytometry in 22Rv1 cells; format: cell-based, human; conditions: 80 nM or 160 nM, three hours, 10% serum stimulated 1 hour before collection; vs DMSO
Description: To evaluate the effects of alvocidib on serum-stimulated prostate cancer cells, RNA Polymerase (Pol) II phosphorylation was assessed by flow cytometry. The prostate cancer cells, 22Rv1 cells, were treated with DMSO or alvocidib (80 nM or 160 nM) for three hours, and were serum stimulated (10%) one hour prior to sample collection. Goat anti-rabbit IgG H&L was used as an isotype control.

VCAP cells = test: Cell viability assay in VCAP prostate cancer cells; format: cell-based; conditions: Homo sapiens, alvocidib 3.9 nM-1000 nM
Description: as §1

[6] = PK analysis in PC-3 mouse xenograft model (plasma and tumor, LC-MS/MS); format: in vivo; conditions: 24 hours after oral gavage of compound of structure (I) 7.5 or 15 mg/kg; PC-3 xenograft mice
[7] = system: LNCaP cells (caspase 3 cleavage); test: Cell death by caspase 3 cleavage Western blot in LNCaP cells; format: cell-based, human; conditions: 100 nM, 48 hours, 10% serum
Description: LNCaP cells were treated with 100 nM alvocidib for 48 hours in regular 10% serum conditions. Cells were collected by scraping, washed in PBS, and lysed using sonication in RIPA buffer supplemented with protease and phosphatase inhibitors. […] of protein was loaded into a 4-12% gel, and transferred to a PVDF membrane. Blocking and staining was performed in 5% milk. […] Anti-actin was used as a loading control.

22Rv1 cells = test: Cell viability assay in 22Rv1 prostate cancer cells; format: cell-based; conditions: Homo sapiens, alvocidib 0.0026 nM-1000 nM
Description: as §1

[8] = system: subcutaneous 22Rv1 human prostate cancer xenograft; test: Efficacy study in the 22Rv1 xenograft prostate cancer model; format: in vivo, male BALB/c nude mice; conditions: castrated mice, 21 days; doses per Table 1: Cmpd Str (I) 1.25 mg/kg p.o. BID or 10 mg/kg p.o. Q7D; enzalutamide 30 mg/kg p.o. QD; docetaxel 10 mg/kg i.p. Q7D; ABT199 100 mg/kg p.o. QD
Description: The objective of this study was to evaluate the in vivo therapeutic efficacy of the compound of structure (I) or a pharmaceutically acceptable salt or zwitterionic form thereof in the treatment of a subcutaneous 22Rv1 human prostate cancer xenograft model. For the 22Rv1 model, efficacy of the compound of structure (I) was evaluated in male BALB/c nude mice. Cobalt-60 irradiation of all mice was performed 2 days before the tumor inoculation at 2 Gy (1 Gy=100 rads). Each mouse was inoculated at the right flank with 1×10^7 tumor cells in 0.1 ml of PBS mixed with matrigel (1:1). The date of tumor cell inoculation was denoted as day 0.
Castration was performed when mean tumor volume reached approximately 200 mm^3. Mice were anesthetized with ketamine/xylazine; surgical castration was performed via a midline scrotal incision allowing bilateral access to the hemiscrotal contents; after exposing each testicle, a 6-0 Vicryl suture was used to ligate the spermatic cord and then remove the testicle; the scrota and skin was then closed with 6-0 Vicryl suture, separately. Treatments started when the mean tumor volume re-grew to approximately 100 mm^3.
After tumors reached the appropriate size, approximately 100-200 mm^3, mice were randomized into treatment groups 1-11, which are shown in Table 1. Each treatment was administered starting on day 15, at a dosing volume of 5 μL/g and continued for 21 days (or 22 days for groups with treatment at Q7D). For groups with treatment at Q7D×3 weeks, dosing was performed on days 1, 8, and 15 post-randomization, and the study was terminated on day 22 post randomization. The combined treatment intervals were each 0 h, and the interval for BID was 8 h. Randomization was performed based on the “Matched distribution” method (StudyDirector™ software, version 3.1.399.19) randomized block design.
Tumor volumes were measured twice per week after randomization in two dimensions using a caliper, and the volume was expressed in mm^3 using the formula: “V=(L×W×W)/2,” where V is tumor volume, L is tumor length (the longest tumor dimension) and W is tumor width (the longest tumor dimension perpendicular to L). The average tumor volume for each group, as a percentage of the average tumor volume of the control group (group 1), is shown in FIG. 6. […] The percentage shown in FIG. 7 (% T/C) is calculated as mean(T)/mean(C)*100%, with “T” representing tumor volume and “C” representing tumor volume for group 1.
T and C are the mean tumor volume (or weight) of the treated groups and control group (group 1), respectively, on a given day. The percentages shown in FIG. 10 are calculated as % ΔT/C=(mean(T)−mean(T0))/(mean(C)−mean(C0))*100%, with “0” indicating the initial timepoint.

accumulation of alvocidib in plasma ([1]; Cohort 1, 1 mg QD oral Formulation No. 401-01, Subject 104, after 24 hours on day 14): some accumulation
change in average Cmax and AUC of alvocidib from day 1 to day 14 ([1]; Cohort 2, 1 mg BID oral Formulation No. 401-01): marked increase
Tmax ([1]; Cycle 1 Day 1, Mean of subjects 501-503): 60 min
Tmax ([1]; Cycle 1 Day 1, Subject 501): 30 min
Tmax ([1]; Cycle 1 Day 1, Subject 502): 120 min
Tmax ([1]; Cycle 1 Day 1, Subject 503): 30 min
Tmax ([1]; Cycle 1 Day 14, Mean of subjects 501-503): 60 min
Tmax ([1]; Cycle 1 Day 14, Subject 501): 30 min
Tmax ([1]; Cycle 1 Day 14, Subject 502): 120 min
Tmax ([1]; Cycle 1 Day 14, Subject 503): 30 min
IC50 (LNCaP cells): 31.8 nM
IC50 (PC3 cells): 102 nM
IC50 (VCAP cells): 34.5 nM
retention of alvocidib in plasma and tumor [6]: retained in plasma and tumor tissues
IC50 (22Rv1 cells): 169 nM
Compound: CN1CC[C@H](c2c(O)cc(O)c3c(=O)cc(-c4ccccc4Cl)oc23)[C@H](O)C1 [alvocidib, 2-(2-chlorophenyl)-5,7-dihydroxy-8-[(3S,4R)-3-hydroxy-1-methylpiperidin-4-yl]chromen-4-one]
phospho- and total-AR protein levels [2]: lowers phospho- and total-AR levels
serum stimulated induction of PSA expression [3]: inhibited serum stimulated induction of PSA
PSA expression at protein level (PSA in LNCaP cells): inhibited PSA expression
PSA expression at protein level (PSA in VCaP cells): inhibited PSA expression
serum-stimulated induction of TMPRSS2 expression [4]: inhibited serum-stimulated induction of TMPRSS2
RNA Pol II phosphorylation staining (flow cytometry) [5]: dose-dependent reduction
cell death, as indicated by caspase 3 cleavage [7]: induced cell death

Compound: CC(=O)O[C@@]12CO[C@@H]1C[C@H](O)[C@@]1(C)C(=O)[C@H](O)C3=C(C)[C@@H](OC(=O)[C@H](O)[C@@H](NC(=O)OC(C)(C)C)c4ccccc4)C[C@@](O)([C@@H](OC(=O)c4ccccc4)[C@H]21)C3(C)C [docetaxel, 1,7β,10β-trihydroxy-9-oxo-5β,20-epoxytax-11-ene-2α,4,13α-triyl 4-acetate 2-benzoate 13-{(2R,3S)-3-[(tert-butoxycarbonyl)amino]-2-hydroxy-3-phenylpropanoate}]
anti-cancer activity in the 22Rv1 xenograft model (tumor growth) [8]: not active

Compound: CNC(=O)c1ccc(N2C(=S)N(c3ccc(C#N)c(C(F)(F)F)c3)C(=O)C2(C)C)cc1F [enzalutamide, 4-(3-(4-cyano-3-(trifluoromethyl)phenyl)-5,5-dimethyl-4-oxo-2-thioxoimidazolidin-1-yl)-2-fluoro-N-methylbenzamide]
anti-cancer activity in the 22Rv1 xenograft model (tumor growth) [8]: not active

Compound: CC1(C)CCC(CN2CCN(c3ccc(C(=O)NS(=O)(=O)c4ccc(NCC5CCOCC5)c([N+](=O)[O-])c4)c(Oc4cnc5[nH]ccc5c4)c3)CC2)=C(c2ccc(Cl)cc2)C1 [venetoclax]
anti-cancer activity in the 22Rv1 xenograft model (tumor growth) [8]: not active
